Assay results reported in the supplement of paper PMC10307832.

Columns and labels:
Assay in all cases: relative viability (nuclei count vs DMSO), 5 days (fraction); higher = more cells survive
AZD5582 + Crizotinib = compound: C[C@@H](C(=O)N[C@@H](C1CCCCC1)C(=O)N2CCC[C@H]2C(=O)N[C@@H]3[C@@H](CC4=CC=CC=C34)OCC#CC#CCO[C@@H]5CC6=CC=CC=C6[C@@H]5NC(=O)[C@@H]7CCCN7C(=O)[C@H](C8CCCCC8)NC(=O)[C@H](C)NC)NC [AZD5582] + C[C@@H](Oc1cc(-c2cnn(C3CCNCC3)c2)cnc1N)c1c(Cl)ccc(F)c1Cl [Crizotinib] (partner 1 µM)
How it was run: (§1)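 Dosing by pin tool came one day after lung cancer cell lines were seeded in 1536-well plates, using either one drug or a fixed anchor-drug dose plus five library-drug doses (not always all listed) in √10 steps. After 5 days, nuclei were counted on 4× images. Relative viability is treated-well nuclei count divided by vehicle-well nuclei count, and values are medians of duplicate plates.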

Temozolomide + Foretinib = compound: Cn1nnc2c(C(N)=O)ncn2c1=O [Temozolomide] + COc1cc2c(Oc3ccc(NC(=O)C4(C(=O)Nc5ccc(F)cc5)CC4)cc3F)ccnc2cc1OCCCN1CCOCC1 [Foretinib] (partner 0.25 µM)
How it was run: as §1

Temozolomide + Alpelisib = compound: Cn1nnc2c(C(N)=O)ncn2c1=O [Temozolomide] + Cc1nc(NC(=O)N2CCC[C@H]2C(N)=O)sc1-c1ccnc(C(C)(C)C(F)(F)F)c1 [Alpelisib] (partner 2 µM)
How it was run: as §1

In the case of NCI-H1703, the relative viability (AZD5582 + Crizotinib; first compound 0.001581 µM) is reported as 0.463, the relative viability (AZD5582 + Crizotinib; first compound 0.005 µM) is reported as 0.428 and the relative viability (AZD5582 + Crizotinib; first compound 0.01581 µM) is reported as 0.59. For the same cell line, the relative viability (AZD5582 + Crizotinib; first compound 0.05 µM) was 0.459, the relative viability (Temozolomide + Foretinib; first compound 0.2 µM) was 0.297 and the relative viability (Temozolomide + Foretinib; first compound 0.6325 µM) was 0.35. It also gave a relative viability (Temozolomide + Foretinib; first compound 2 µM) of 0.401, a relative viability (Temozolomide + Foretinib; first compound 6.325 µM) of 0.281 and a relative viability (Temozolomide + Foretinib; first compound 20 µM) of 0.374. It also gave a relative viability (Temozolomide + Alpelisib; first compound 0.2 µM) of 0.367, a relative viability (Temozolomide + Alpelisib; first compound 0.6325 µM) of 0.344 and a relative viability (Temozolomide + Alpelisib; first compound 2 µM) of 0.463. The relative viability (Temozolomide + Alpelisib; first compound 6.325 µM) was 0.288 and the relative viability (Temozolomide + Alpelisib; first compound 20 µM) was 0.315.
